Patent US9926297B2, “Bicyclic AZA compounds as muscarinic M1 receptor and/or M4 receptor agonists” (Heptares Therapeutics Limited, priority 2014, dated 2018)

Columns and labels:
[1] = molecular target: human muscarinic M3 receptor (Homo sapiens, UniProt P20309); assay: Alphascreen Surefire phospho-ERK1/2 functional assay, M3; settings: for Emax: CHO, read-out: % Emax cf. ACh, M3, CHO cells stably expressing human M3, relative to ACh; for EC50: pEC50 M3, CHO cells stably expressing human M3, phospho-ERK1/2, * = variable results
Chain of human muscarinic M3 receptor (P20309 whole entry): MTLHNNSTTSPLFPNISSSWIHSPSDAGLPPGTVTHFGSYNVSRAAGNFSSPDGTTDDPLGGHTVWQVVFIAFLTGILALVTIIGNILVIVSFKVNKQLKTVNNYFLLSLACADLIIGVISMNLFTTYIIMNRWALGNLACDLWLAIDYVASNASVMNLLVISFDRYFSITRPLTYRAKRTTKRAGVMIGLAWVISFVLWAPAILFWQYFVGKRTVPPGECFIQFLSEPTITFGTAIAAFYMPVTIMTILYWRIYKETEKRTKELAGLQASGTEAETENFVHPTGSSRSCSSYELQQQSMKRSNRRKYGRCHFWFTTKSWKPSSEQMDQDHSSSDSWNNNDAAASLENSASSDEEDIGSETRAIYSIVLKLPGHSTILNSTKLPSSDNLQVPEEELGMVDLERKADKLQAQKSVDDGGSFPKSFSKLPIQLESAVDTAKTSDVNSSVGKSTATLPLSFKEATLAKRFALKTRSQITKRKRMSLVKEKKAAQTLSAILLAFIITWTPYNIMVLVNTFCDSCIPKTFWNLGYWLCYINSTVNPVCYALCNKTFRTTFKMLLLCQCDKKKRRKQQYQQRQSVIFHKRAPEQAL

[2] = molecular target: T1, human muscarinic M4 receptor (Homo sapiens, UniProt P08173); assay: Alphascreen Surefire phospho-ERK1/2 functional assay, M4; format: cell-based; settings: for EC50: phospho-ERK1/2, * = variable results, read-out: pEC50 M4 (converted); for Emax: CHO, read-out: % Emax cf. ACh, M4, CHO cells stably expressing human M4
T1 construct: expressed in transfected cells
T1 sequence (P08173 1-479): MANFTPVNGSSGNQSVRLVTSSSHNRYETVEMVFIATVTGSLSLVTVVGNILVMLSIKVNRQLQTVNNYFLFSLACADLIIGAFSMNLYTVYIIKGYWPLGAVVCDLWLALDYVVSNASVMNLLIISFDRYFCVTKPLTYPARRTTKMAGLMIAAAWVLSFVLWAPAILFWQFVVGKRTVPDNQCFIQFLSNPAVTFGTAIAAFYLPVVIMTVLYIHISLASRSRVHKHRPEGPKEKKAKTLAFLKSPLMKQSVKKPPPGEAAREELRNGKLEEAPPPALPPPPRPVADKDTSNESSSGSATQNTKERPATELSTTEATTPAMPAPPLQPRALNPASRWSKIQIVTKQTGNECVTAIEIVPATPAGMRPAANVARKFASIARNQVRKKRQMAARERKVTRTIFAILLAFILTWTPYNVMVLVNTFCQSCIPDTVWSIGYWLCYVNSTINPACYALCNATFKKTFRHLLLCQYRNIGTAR

[3] = molecular target: T2, human muscarinic M2 receptor (Homo sapiens, UniProt P08172); assay: Alphascreen Surefire phospho-ERK1/2 functional assay, M2; settings: for Emax: CHO, read-out: % Emax cf. ACh, M2, CHO cells stably expressing human M2, relative to ACh
T2 sequence (P08172 1-466): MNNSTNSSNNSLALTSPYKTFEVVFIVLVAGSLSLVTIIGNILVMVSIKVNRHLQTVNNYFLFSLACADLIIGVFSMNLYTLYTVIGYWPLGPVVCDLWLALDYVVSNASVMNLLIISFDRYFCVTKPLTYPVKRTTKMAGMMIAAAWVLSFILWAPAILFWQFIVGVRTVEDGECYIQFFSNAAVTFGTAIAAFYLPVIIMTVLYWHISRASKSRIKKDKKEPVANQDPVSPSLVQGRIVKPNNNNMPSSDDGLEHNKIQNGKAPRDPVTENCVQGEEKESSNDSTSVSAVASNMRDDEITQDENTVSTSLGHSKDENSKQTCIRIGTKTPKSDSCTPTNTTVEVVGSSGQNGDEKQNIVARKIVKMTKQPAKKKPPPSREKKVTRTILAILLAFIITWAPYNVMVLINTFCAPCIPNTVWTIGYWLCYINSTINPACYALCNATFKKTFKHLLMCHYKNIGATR

[4] = molecular target: T3, human muscarinic M1 receptor (Homo sapiens, UniProt P11229); assay: Alphascreen Surefire phospho-ERK1/2 functional assay, M1; format: cell-based; settings: for EC50: phospho-ERK1/2, * = variable results, read-out: pEC50 M1 (converted); for Emax: CHO, read-out: % Emax cf. ACh, M1, CHO cells stably expressing human M1
T3 sequence (P11229 1-460): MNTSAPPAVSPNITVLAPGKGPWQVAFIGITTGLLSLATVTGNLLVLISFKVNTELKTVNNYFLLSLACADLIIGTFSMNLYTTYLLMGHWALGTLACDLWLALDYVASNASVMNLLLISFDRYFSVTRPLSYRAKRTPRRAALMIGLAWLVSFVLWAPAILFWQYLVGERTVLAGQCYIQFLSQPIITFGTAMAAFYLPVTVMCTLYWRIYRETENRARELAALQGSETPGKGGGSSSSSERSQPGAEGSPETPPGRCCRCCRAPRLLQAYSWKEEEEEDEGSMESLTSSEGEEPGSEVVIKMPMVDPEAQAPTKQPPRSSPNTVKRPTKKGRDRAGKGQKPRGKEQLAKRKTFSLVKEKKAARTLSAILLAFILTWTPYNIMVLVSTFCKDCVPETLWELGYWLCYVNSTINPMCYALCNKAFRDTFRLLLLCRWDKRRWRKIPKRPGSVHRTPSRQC

[5] = CHO cells stably expressing human M4
[6] = CHO cells stably expressing human M1

Emax [1] | EC50 [1] | EC50 [2, 5] | Emax ([2]; relative to ACh) | EC50 [3] | Emax [3] | EC50 [4, 6] | Emax ([4]; relative to ACh) | % Emax cf. ACh, M4 ([2]; CHO cells stably expressing human M4, relative to ACh) | % Emax cf. ACh, M1 ([4]; CHO cells stably expressing human M1, relative to ACh) | SMILES
0% | > 20000 nM | 79.4 nM | 77% | > 20000 nM | 2% | 631 nM | 45% |  |  | CCOC(=O)N1CCC2(CC(N3CCC(N4CCNC4=O)CC3)C2)C1 (single isomer, unassigned) [2-124 Isomer 2, ethyl 2-[4-(2-oxoimidazolidin-1-yl)piperidin-1-yl]-6-azaspiro[3.4]octane-6-carboxylate]
0% | > 20000 nM | 6.31 nM | 115% | > 20000 nM | 7% | 31.6 nM | 97% |  |  | CCOC(=O)N1CCC2(CC(N3CCC(c4ccc[nH]c4=O)CC3)C2)C1 (single isomer, unassigned) [3-2 Isomer 1, ethyl 2-[4-(2-oxo-1,2-dihydropyridin-3-yl)piperidin-1-yl]-6-azaspiro[3.4]octane-6-carboxylate]
56% | > 20000 nM | 6.31 nM | 106% | 10000 nM | 50% | 25.1 nM | 81% |  |  | O=C(OCCF)N1CCC2(CC(N3CCC(c4ccc[nH]c4=O)CC3)C2)C1 (single isomer, unassigned) [3-3 Isomer 2, 2-fluoroethyl 2-[4-(2-oxo-1,2-dihydropyridin-3-yl)piperidin-1-yl]-6-azaspiro[3.4]octane-6-carboxylate]
11% | > 20000 nM | 15.8 nM | 80% | > 20000 nM | 65% | > 20000 nM | 20% |  |  | COc1ncccc1C1CCN(C2CC3(CCN(C(=O)OCCF)C3)C2)CC1 (single isomer, unassigned) [3-5 Isomer 2, 2-fluoroethyl 2-[4-(2-methoxypyridin-3-yl)piperidin-1-yl]-6-azaspiro[3.4]octane-6-carboxylate]
4% | > 20000 nM | 39.8 nM | 58% | > 20000 nM | 0% | > 20000 nM | 74% |  |  | CCOC(=O)N1CCC2(CC(N3CCC(c4cnc(OC)cc4C)CC3)C2)C1 (single isomer, unassigned) [3-6 Isomer 2, ethyl 2-[4-(6-methoxy-4-methylpyridin-3-yl)piperidin-1-yl]-6-azaspiro[3.4]octane-6-carboxylate]
0% | > 20000 nM | 25.1 nM | 54% | > 20000 nM | 2% | > 20000 nM | 19% |  |  | CCOC(=O)N1CCC2(CC(N3CCC(c4ccnc(N)n4)CC3)C2)C1 (single isomer, unassigned) [3-8 Isomer 2, ethyl 2-[4-(2-aminopyrimidin-4-yl)piperidin-1-yl]-6-azaspiro[3.4]octane-6-carboxylate]
4% | > 20000 nM | 25.1 nM | 96% | > 20000 nM | 2% | 251 nM | 103% |  |  | CCOC(=O)N1CCC2(CC(N3CCC(c4nccc(N)n4)CC3)C2)C1 (single isomer, unassigned) [3-9 Isomer 2, ethyl 2-[4-(4-aminopyrimidin-2-yl)piperidin-1-yl]-6-azaspiro[3.4]octane-6-carboxylate]
5% | > 20000 nM | 3.98 nM | 110% | > 20000 nM | 2% | 251 nM | 34% |  |  | CCOC(=O)N1CCC2(CC(N3CCC(c4cc(C)cnc4OC)CC3)C2)C1 (single isomer, unassigned) [3-12 Isomer 2, ethyl 2-[4-(2-methoxy-5-methylpyridin-3-yl)piperidin-1-yl]-6-azaspiro[3.4]octane-6-carboxylate]
1% | > 20000 nM | 12.6 nM | 82% | > 20000 nM | 2% | 12.6 nM | 97% |  |  | CCOC(=O)N1CCC2(CC(N3CCC(c4cccc(OC)n4)CC3)C2)C1 (single isomer, unassigned) [3-13 Isomer 2, ethyl 2-[4-(6-methoxypyridin-2-yl)piperidin-1-yl]-6-azaspiro[3.4]octane-6-carboxylate]
5% | > 20000 nM | 50.1 nM |  | > 20000 nM | 3% | 398 nM |  | 68% | 58% | CCOC(=O)N1CCC2(CC(N3CCC(C4CCCNC4=O)CC3)C2)C1 (single isomer, unassigned) [4-1 Isomer 4, ethyl 2-(2-oxo-3,4′-bipiperidin-1′-yl)-6-azaspiro[3.4]octane-6-carboxylate]
4% | > 20000 nM | 12.6 nM | 88% | > 20000 nM | 9% | 158 nM | 103% |  |  | CCOC(=O)N1CCC2(CC(N3CCC(C4C(=O)NCCC4C)CC3)C2)C1 (single isomer, unassigned) [4-3 Isomer 2, ethyl 2-(4-methyl-2-oxo-3,4′-bipiperidin-1′-yl)-6-azaspiro[3.4]octane-6-carboxylate]
21% | > 20000 nM | 5.01 nM | 73% | > 20000 nM | 19% | 31.6 nM | 97% |  |  | CCOC(=O)N1CCC2(CC(N3CCC(C4CC(C)CNC4=O)CC3)C2)C1 (single isomer, unassigned) [4-4 Isomer 2, ethyl 2-(5-methyl-2-oxo-3,4′-bipiperidin-1′-yl)-6-azaspiro[3.4]octane-6-carboxylate]
9% | > 20000 nM | 15.8 nM | 60% | > 20000 nM | 9% | 501 nM | 52% |  |  | CCOC(=O)N1CCC2(CC(N3CCC(C4CCCN(CC)C4=O)CC3)C2)C1 (single isomer, unassigned) [4-5 Isomer 2, ethyl 2-(1-ethyl-2-oxo-[3,4′-bipiperidin]-1′-yl)-6-azaspiro[3.4]octane-6-carboxylate]
9% | > 20000 nM | 50.1 nM | 77% | > 20000 nM | 75% | 126 nM | 66% |  |  | CCOC(=O)N1CCC2(CC(N3CCC(C4CCCN(C(C)C)C4=O)CC3)C2)C1 (single isomer, unassigned) [4-6 Isomer 2, ethyl 2-[2-oxo-1-(propan-2-yl)-3,4′-bipiperidin-1′-yl]-6-azaspiro[3.4]octane-6-carboxylate]
10% | > 20000 nM | 251 nM | 67% | > 20000 nM | 1% | 3980 nM | 73% |  |  | CCOC(=O)N1CCC2(CC(N3CCC(N4CCCOC4=O)CC3)C2)C1 (single isomer, unassigned) [4-7 Isomer 2, ethyl 2-[4-(2-oxo-1,3-oxazinan-3-yl)piperidin-1-yl]-6-azaspiro[3.4]octane-6-carboxylate]
